Article PMC3757248, “Antiestrogen-binding site ligands induce autophagy in myeloma cells that proceeds through alteration of cholesterol metabolism” (Oncotarget, 2013)
Like-named read-outs stand apart in the source and are kept apart here.

Tests used:
LP-1 = test system: LP-1; set-up: method as in earlier work; details: cited from earlier work
NCI-H929 = test system: NCI-H929; set-up: method as in earlier work; details: cited from earlier work
OPM-2 = test system: OPM-2; set-up: method as in earlier work; details: cited from earlier work
RPMI 8226 = test system: RPMI 8226; set-up: method as in earlier work; details: cited from earlier work
RPMI 8226 and LP-1 cells = test: Cell viability, MTT assay; format: cell-based, human; details: for cell death (viable cells, MTT assay): 1 μM LY 294002, 10 nM everolimus, 10 μM RU 39411, 40 μM PBPE; for sensitivity to dexamethasone (MTT assay): 10 μM dexamethasone 24 h, RU 39411 10 μM for 2 h before
Protocol: RPMI 8226 were obtained from R Bataille (CLCC, Nantes, France) and LP-1 cells from D Bouscary (Institut Cochin, Paris, France). At their arrival, the identity of cells was checked by karyotyping and surface markers expression; cells were then amplified and frozen. HMCLs were maintained in RPMI 1640 medium (Lonza, Basel, Switzerland) supplemented with 2 mM L-glutamine (Lonza) and 10% FCS (fetal calf serum) (PAA Laboratories, Velizy-Villacoublay, France). In experiments with AEs, cells were cultured in phenol red-free medium plus FCS. AEs were dissolved in ethanol (EtOH) to obtain 10 mM stock solution and then diluted into medium immediately before use. For controls, vehicle was added at the same final concentration. Cell viability was determined using CellTiter 96® AQueous One Solution (MTT [([3]-([4],[5])-dimethylthiazol-[2]-yl)-[2],[5]-diphenyltetrazolium bromide] assay, Promega, Charbonnières, France) according to the supplier's instructions.

AEBS [1] = target: T1, AEBS (Homo sapiens, UniProt Q15125+Q9UBM7); test: Binding to the AEBS in RPMI 8226
LP-1 cells [2] = test: Sterols accumulated in cells, HPLC and GC/MS; format: cell-based, human; details: LP1, 48 h incubation
Protocol: (§1) The organic layer was reduced to dryness under a flux of argon and the residue was resuspended in ethanol. Sterols were analyzed by liquid chromatography and gas-liquid chromatography as described before. Neutral lipids and sphingomyelin analyses were done according to previously published procedures.

RPMI 8226 cells [3] = test: Sterols accumulated in cells, HPLC and GC/MS; format: cell-based, human; details: RPMI 8226, 48 h incubation
Protocol: as §1

RPMI 8226 cells [4] = test: Electron microscopy for MLBs, AVs and UVs; format: cell-based, human; details: 48 h, 10 μM drug (PBPE 40 μM)
LP-1 cells [5] = test: Electron microscopy for MLBs, AVs and UVs; format: cell-based, human; details: 48 h, 10 μM drug (PBPE 40 μM)
LP-1 cells [6] = test: Presence of 5,6-EC in cells by GC/MS; format: cell-based, human; details: 48 h, 10 μM drug (PBPE 40 μM)
Protocol: as §1

RPMI 8226 cells [7] = test: Presence of 5,6-EC in cells by GC/MS; format: cell-based, human; details: 48 h, 10 μM drug (PBPE 40 μM)
Protocol: as §1

HMCLs = test: Free sterol accumulation in HMCLs; format: cell-based, human
Protocol: as §1

AEBS [8] = target: T1, AEBS; test: Binding to the AEBS in LP1; set-up: endogenous in cells; host or cells: LP-1 human multiple myeloma cell lines
ChEH [9] = target: T2, ChEH (Homo sapiens, UniProt Q15125+Q9UBM7); test: ChEH activity measured on intact cells; format: cell-based; set-up: endogenous in cells; host or cells: LP-1 human multiple myeloma cell lines; details: LP-1 intact cells, [14C]-5,6-EC 0.6 μM, drugs 1 nM to 10 μM over 24 h; read-out: ChEH IC50
Source text: (§2) Cells were then pelleted and extracted with chloroform/methanol (2/1). The organic layer was reduced to dryness under a flux of argon and the residue was resuspended in EtOH. Samples were applied to thin layer chromatography (TLC) plates and developed using ethyl acetate as previously described. The radioactive metabolites were visualized by autoradiography using Kodak Biomax MS films.

ChEH [10] = target: T2, ChEH; test: ChEH activity measured on intact cells; format: cell-based; set-up: endogenous in cells; host or cells: RPMI 8226 human multiple myeloma cell lines; details: RPMI 8226 intact cells, [14C]-5,6-EC 0.6 μM, drugs 1 nM to 10 μM over 24 h; read-out: ChEH IC50
Source text: as §2

AEBS [11] = target: T1, AEBS; test: Binding to the AEBS in HMCLs; set-up: endogenous in cells; host or cells: RPMI 8226 and LP-1 human multiple myeloma cell lines
ChEH [12] = target: T2, ChEH; test: ChEH activity in HMCLs (TLC); format: cell-based; set-up: endogenous in cells; host or cells: RPMI 8226 and LP-1 human multiple myeloma cell lines; details: OHT, Tam, RU 58668 10 μM, PBPE 40 μM
Source text: as §2

[13] = RPMI 8226, presence of 500 μM Vit E

T1 sequence (Q15125 whole entry): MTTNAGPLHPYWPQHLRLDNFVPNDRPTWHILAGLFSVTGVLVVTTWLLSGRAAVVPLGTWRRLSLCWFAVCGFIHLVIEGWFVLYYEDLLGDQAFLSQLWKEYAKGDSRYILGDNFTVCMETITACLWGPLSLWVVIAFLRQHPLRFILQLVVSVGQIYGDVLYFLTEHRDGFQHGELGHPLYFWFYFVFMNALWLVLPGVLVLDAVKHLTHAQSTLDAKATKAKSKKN
T1 sequence (Q9UBM7 whole entry): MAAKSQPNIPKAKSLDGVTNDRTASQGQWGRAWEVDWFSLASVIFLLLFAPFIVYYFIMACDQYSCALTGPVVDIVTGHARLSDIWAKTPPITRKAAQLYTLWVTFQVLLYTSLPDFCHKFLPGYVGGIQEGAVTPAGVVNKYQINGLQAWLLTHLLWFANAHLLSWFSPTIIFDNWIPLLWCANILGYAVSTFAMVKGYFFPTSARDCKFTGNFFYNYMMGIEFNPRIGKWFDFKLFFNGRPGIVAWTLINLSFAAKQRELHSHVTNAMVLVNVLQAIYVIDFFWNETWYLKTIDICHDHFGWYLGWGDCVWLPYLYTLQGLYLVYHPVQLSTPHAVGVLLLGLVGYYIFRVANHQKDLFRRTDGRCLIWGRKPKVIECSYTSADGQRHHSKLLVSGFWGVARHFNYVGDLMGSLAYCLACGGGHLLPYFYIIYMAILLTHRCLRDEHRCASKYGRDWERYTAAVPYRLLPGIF
T2 sequence (Q15125 whole entry): as the sequence (Q15125 whole entry) above
T2 sequence (Q9UBM7 whole entry): as the sequence (Q9UBM7 whole entry) above

SMILES	cell death (viable cells, MTT assay) (RPMI 8226 and LP-1 cells)	Desmosterol (LP-1 cells [2])	Zymostenol (LP-1 cells [2])	Desmosterol (RPMI 8226 cells [3])	Zymostenol (RPMI 8226 cells [3])	AV (RPMI 8226 cells [4]; RPMI 8226, absence of Vit E)	MLB (RPMI 8226 cells [4]; RPMI 8226, absence of Vit E)	UV (RPMI 8226 cells [4]; RPMI 8226, absence of Vit E)	AV (RPMI 8226 cells [4]; [13])	MLB (RPMI 8226 cells [4]; [13])	UV (RPMI 8226 cells [4]; [13])	AV (LP-1 cells [5]; LP-1, absence of Vit E)	MLB (LP-1 cells [5]; LP-1, absence of Vit E)	UV (LP-1 cells [5]; LP-1, absence of Vit E)	AV (LP-1 cells [5]; LP-1, presence of 500 μM Vit E)	MLB (LP-1 cells [5]; LP-1, presence of 500 μM Vit E)	UV (LP-1 cells [5]; LP-1, presence of 500 μM Vit E)	5,6-EC (LP-1 cells [6]; LP-1, absence of Vit E)	5,6-EC (LP-1 cells [6]; LP-1, presence of 500 μM Vit E)	5,6-EC (RPMI 8226 cells [7]; RPMI 8226, absence of Vit E)	other results
C[C@]12CC[C@@H]3c4ccc(O)cc4C[C@@H](CCCCCCCCC[S+]([O-])CCCC(F)(F)C(F)(F)F)[C@H]3[C@@H]1CC[C@@H]2O (stereo partly shown) [Fulvestrant]																					SERM and SERDs effects on MM cell lines (LP-1): G1-arrest; SERM and SERDs effects on MM cell lines (NCI-H929): Apoptosis; SERM and SERDs effects on MM cell lines (OPM-2): G1-arrest; SERM and SERDs effects on MM cell lines (RPMI 8226): Apoptosis
O=c1cc(N2CCOCC2)oc2c(-c3ccccc3)cccc12 [LY 294002]	induced cell death																				
CN(C)CCOc1ccc([C@H]2C[C@]3(C)[C@@H](O)CC[C@H]3[C@@H]3CCc4cc(O)ccc4[C@H]32)cc1 [RU 39411, 11β-(4-(2-(dimethylamino)-ethoxy)-phenyl)estra-1,3,5(10)-triene-3,17β-diol]	cell death that was strictly caspase-independent	46.4 percent by the weight of total sterol	1.7 percent by the weight of total sterol	41.5 percent by the weight of total sterol	1.8 percent by the weight of total sterol	+ + (The sign + means that 80 % cells were positive and contained at least 5 vesicles)	+ + (The sign + means that 80 % cells were positive and contained at least 5 vesicles)	+ (The sign + means that 80 % cells were positive and contained at least 5 vesicles)	+ + (The sign + means that 80 % cells were positive and contained at least 5 vesicles)	+ + (The sign + means that 80 % cells were positive and contained at least 5 vesicles)	− (otherwise they were considered as negative (-))	+ + (The sign + means that 80 % cells were positive and contained at least 5 vesicles)	+ + (The sign + means that 80 % cells were positive and contained at least 5 vesicles)	+ (The sign + means that 80 % cells were positive and contained at least 5 vesicles)	+ + (The sign + means that 80 % cells were positive and contained at least 5 vesicles)	+ + (The sign + means that 80 % cells were positive and contained at least 5 vesicles)	− (otherwise they were considered as negative (-))	+	−	+	Ki (AEBS [1]): 29.4 ± 5.5 nM; 5,6-EC (RPMI 8226 cells [7]; [13]): −; free sterol accumulated (HMCLs): accumulation of desmosterol; sensitivity to dexamethasone (MTT assay) (RPMI 8226 and LP-1 cells): restores the sensitivity; Ki (AEBS [8]): 27.4 ± 3.1 nM; IC50 (ChEH [9]): 727 ± 31 nM; IC50 (ChEH [10]): 632 ± 22 nM; affinity for the AEBS (AEBS [11]): high affinity
CC/C(=C(\c1ccccc1)c1ccc(OCCN(C)C)cc1)c1ccccc1 [Tam, Tamoxifen]		0.2 percent by the weight of total sterol	38.2 percent by the weight of total sterol	0.2 percent by the weight of total sterol	35.9 percent by the weight of total sterol	+ + (The sign + means that 80 % cells were positive and contained at least 5 vesicles)	+ + (The sign + means that 80 % cells were positive and contained at least 5 vesicles)	+ (The sign + means that 80 % cells were positive and contained at least 5 vesicles)	+ + (The sign + means that 80 % cells were positive and contained at least 5 vesicles)	+ + (The sign + means that 80 % cells were positive and contained at least 5 vesicles)	− (otherwise they were considered as negative (-))	+ + (The sign + means that 80 % cells were positive and contained at least 5 vesicles)	+ + (The sign + means that 80 % cells were positive and contained at least 5 vesicles)	+ (The sign + means that 80 % cells were positive and contained at least 5 vesicles)	+ + (The sign + means that 80 % cells were positive and contained at least 5 vesicles)	+ + (The sign + means that 80 % cells were positive and contained at least 5 vesicles)	− (otherwise they were considered as negative (-))	+	−	+	5,6-EC (RPMI 8226 cells [7]; [13]): −; free sterol accumulated (HMCLs): accumulation zymostenol; affinity for the AEBS (AEBS [11]): high affinity; ChEH activity, conversion of 5,6-EC into CT by TLC (ChEH [12]): ChEH activity was inhibited
C[C@@H]1C[C@H]2[C@@H]3CCC4=CC(=O)C=C[C@]4(C)[C@@]3(F)[C@@H](O)C[C@]2(C)[C@@]1(O)C(=O)CO [dexamethasone]																					sensitivity to dexamethasone (MTT assay) (RPMI 8226 and LP-1 cells): resistant
CO[C@H]1C[C@@H]2CC[C@@H](C)[C@@](O)(O2)C(=O)C(=O)N2CCCC[C@H]2C(=O)O[C@H]([C@H](C)C[C@@H]2CC[C@@H](OCCO)[C@H](OC)C2)CC(=O)[C@H](C)/C=C(\C)[C@@H](O)[C@@H](OC)C(=O)[C@H](C)C[C@H](C)/C=C/C=C/C=C/1C [everolimus]	induced cell death																				
